# Test results as given in ChEMBL document CHEMBL3885881, “DrugMatrix”.
# Species: Rattus norvegicus
# Assay: DrugMatrix - Regimen: Daily Repeat
# Type: toxicity, organism-based, Sprague-Dawley
# Design: regimen Daily Repeat, gender Male, age 6-8 weeks
# Details: in vivo, iv, vehicle 100 % SALINE; for ABSOLUTE BASOPHIL / ABSOLUTE EOSINOPHIL / ABSOLUTE LYMPHOCYTE / ABSOLUTE MONOCYTE / ABSOLUTE SEGMENTED NEUTROPHIL / BASOPHIL / EOSINOPHIL / ERYTHROCYTE COUNT / HEMATOCRIT / HEMOGLOBIN / LEUKOCYTE COUNT / LYMPHOCYTE / MEAN CORPUSCULAR HEMOGLOBIN / MEAN CORPUSCULAR HEMOGLOBIN CONCENTRATION / MEAN CORPUSCULAR VOLUME / MONOCYTE / NEUTROPHIL / NUCLEATED RED BLOOD CELLS / PLATELET COUNT: tissue Blood; for ALANINE AMINOTRANSFERASE / ALBUMIN / ALKALINE PHOSPHATASE / ASPARTATE AMINOTRANSFERASE / BLOOD UREA NITROGEN / CARBON DIOXIDE / CHLORIDE / CHOLESTEROL / CREATINE PHOSPHOKINASE / CREATININE / GLUCOSE / LACTATE DEHYDROGENASE / LIPASE / PHOSPHORUS / POTASSIUM / SODIUM / TOTAL BILIRUBIN / TOTAL PROTEIN / URIC ACID: tissue Plasma
# [1] = 0 mg/kg, 72 h, dose level Control, time 3 day
# [2] = 0 mg/kg, 120 h, dose level Control, time 5 day
# [3] = 2 mg/kg, 72 h, dose level Low, time 3 day
structure (smiles),measurement,setting,value
Cc1ccc(N(CC2=NCCN2)c2cccc(O)c2)cc1 [PHENTOLAMINE],ABSOLUTE BASOPHIL,[1],0 CELLS/uL
same,ABSOLUTE EOSINOPHIL,[1],53.17 CELLS/uL
same,ABSOLUTE LYMPHOCYTE,[1],13731.5 CELLS/uL
same,ABSOLUTE MONOCYTE,[1],186.17 CELLS/uL
same,ABSOLUTE SEGMENTED NEUTROPHIL,[1],1645.83 CELLS/uL
same,BASOPHIL,[1],0%
same,EOSINOPHIL,[1],0.33%
same,ERYTHROCYTE COUNT,[1],5.57 x10E6/uL
same,HEMATOCRIT,[1],36.33%
same,HEMOGLOBIN,[1],13.47 G/DL
same,LEUKOCYTE COUNT,[1],15.62 x10E3/uL
same,LYMPHOCYTE,[1],88.5%
same,MEAN CORPUSCULAR HEMOGLOBIN,[1],24.22 pg
same,MEAN CORPUSCULAR HEMOGLOBIN CONCENTRATION,[1],37.1 G/DL
same,MEAN CORPUSCULAR VOLUME,[1],65.35 fL
same,MONOCYTE,[1],1.17%
same,NEUTROPHIL,[1],10%
same,NUCLEATED RED BLOOD CELLS,[1],0.17 /100WBC
same,PLATELET COUNT,[1],1295.5 x10E3/uL
same,ALANINE AMINOTRANSFERASE,[1],46.83 u/L
same,ALBUMIN,[1],4.37 G/DL
same,ALKALINE PHOSPHATASE,[1],414.33 u/L
same,ASPARTATE AMINOTRANSFERASE,[1],72.5 u/L
same,BLOOD UREA NITROGEN,[1],17 mg/dL
same,CARBON DIOXIDE,[1],23.5 mmol/L
same,CHLORIDE,[1],102 MEQ/L
same,CHOLESTEROL,[1],80.33 mg/dL
same,CREATINE PHOSPHOKINASE,[1],207.83 u/L
same,CREATININE,[1],0.22 mg/dL
same,GLUCOSE,[1],172.17 mg/dL
same,LACTATE DEHYDROGENASE,[1],131 u/L
same,LIPASE,[1],10.33 u/L
same,PHOSPHORUS,[1],11.75 mg/dL
same,POTASSIUM,[1],6.83 MEQ/L
same,SODIUM,[1],145.28 MEQ/L
same,TOTAL BILIRUBIN,[1],0.22 mg/dL
same,TOTAL PROTEIN,[1],6.22 G/DL
same,URIC ACID,[1],1.9 mg/dL
same,ABSOLUTE BASOPHIL,[2],0 CELLS/uL
same,ABSOLUTE EOSINOPHIL,[2],33 CELLS/uL
same,ABSOLUTE LYMPHOCYTE,[2],12184 CELLS/uL
same,ABSOLUTE MONOCYTE,[2],108 CELLS/uL
same,ABSOLUTE SEGMENTED NEUTROPHIL,[2],958.33 CELLS/uL
same,BASOPHIL,[2],0%
same,EOSINOPHIL,[2],0.17%
same,ERYTHROCYTE COUNT,[2],5.9 x10E6/uL
same,HEMATOCRIT,[2],36.58%
same,HEMOGLOBIN,[2],13.33 G/DL
same,LEUKOCYTE COUNT,[2],13.28 x10E3/uL
same,LYMPHOCYTE,[2],91.17%
same,MEAN CORPUSCULAR HEMOGLOBIN,[2],22.67 pg
same,MEAN CORPUSCULAR HEMOGLOBIN CONCENTRATION,[2],36.47 G/DL
same,MEAN CORPUSCULAR VOLUME,[2],62.13 fL
same,MONOCYTE,[2],0.83%
same,NEUTROPHIL,[2],7.83%
same,NUCLEATED RED BLOOD CELLS,[2],0.33 /100WBC
same,PLATELET COUNT,[2],1475.33 x10E3/uL
same,ALANINE AMINOTRANSFERASE,[2],47 u/L
same,ALBUMIN,[2],4.35 G/DL
same,ALKALINE PHOSPHATASE,[2],368.33 u/L
same,ASPARTATE AMINOTRANSFERASE,[2],90.83 u/L
same,BLOOD UREA NITROGEN,[2],15.5 mg/dL
same,CARBON DIOXIDE,[2],26.5 mmol/L
same,CHLORIDE,[2],103.33 MEQ/L
same,CHOLESTEROL,[2],71.83 mg/dL
same,CREATINE PHOSPHOKINASE,[2],585.33 u/L
same,CREATININE,[2],0.19 mg/dL
same,GLUCOSE,[2],171.17 mg/dL
same,LACTATE DEHYDROGENASE,[2],388.83 u/L
same,LIPASE,[2],10.83 u/L
same,PHOSPHORUS,[2],11.75 mg/dL
same,POTASSIUM,[2],6.21 MEQ/L
same,SODIUM,[2],143.7 MEQ/L
same,TOTAL BILIRUBIN,[2],0.17 mg/dL
same,TOTAL PROTEIN,[2],6.17 G/DL
same,URIC ACID,[2],1.98 mg/dL
same,ABSOLUTE BASOPHIL,[3],0 CELLS/uL
same,ABSOLUTE EOSINOPHIL,[3],44.67 CELLS/uL
same,ABSOLUTE LYMPHOCYTE,[3],11097.67 CELLS/uL
same,ABSOLUTE MONOCYTE,[3],122.33 CELLS/uL
same,ABSOLUTE SEGMENTED NEUTROPHIL,[3],968.67 CELLS/uL
same,BASOPHIL,[3],0%
same,EOSINOPHIL,[3],0.33%
same,ERYTHROCYTE COUNT,[3],5.48 x10E6/uL
same,HEMATOCRIT,[3],35.63%
same,HEMOGLOBIN,[3],13.4 G/DL
same,LEUKOCYTE COUNT,[3],12.23 x10E3/uL
same,LYMPHOCYTE,[3],90.67%
same,MEAN CORPUSCULAR HEMOGLOBIN,[3],24.5 pg
same,MEAN CORPUSCULAR HEMOGLOBIN CONCENTRATION,[3],37.6 G/DL
same,MEAN CORPUSCULAR VOLUME,[3],65.03 fL
same,MONOCYTE,[3],1%
same,NEUTROPHIL,[3],8%
same,NUCLEATED RED BLOOD CELLS,[3],0 /100WBC
same,PLATELET COUNT,[3],1379.67 x10E3/uL
same,ALANINE AMINOTRANSFERASE,[3],31.67 u/L
same,ALBUMIN,[3],4.47 G/DL
same,ALKALINE PHOSPHATASE,[3],406 u/L
same,ASPARTATE AMINOTRANSFERASE,[3],74 u/L
same,BLOOD UREA NITROGEN,[3],18.67 mg/dL
same,CARBON DIOXIDE,[3],19.67 mmol/L
same,CHLORIDE,[3],104.67 MEQ/L
same,CHOLESTEROL,[3],76.67 mg/dL
same,CREATINE PHOSPHOKINASE,[3],368.67 u/L
same,CREATININE,[3],0.22 mg/dL
same,GLUCOSE,[3],166 mg/dL
same,LACTATE DEHYDROGENASE,[3],137.33 u/L
same,LIPASE,[3],10.33 u/L
same,PHOSPHORUS,[3],12.63 mg/dL
same,POTASSIUM,[3],6.72 MEQ/L
same,SODIUM,[3],145.53 MEQ/L
same,TOTAL BILIRUBIN,[3],0.13 mg/dL
same,TOTAL PROTEIN,[3],6.27 G/DL
